According to paper PMC10102842 (Clinical cancer research : an official journal of the …, 2023):
pIC50: −log10 of the molar value.

Biological target: DNA polymerase theta (Polθ) (Homo sapiens, UniProt O75417)
Experiment: Nano-luciferase MMEJ reporter assay in HEK-293 cells
Type: cell-based

Chain of DNA polymerase theta (Polθ) (O75417 whole entry): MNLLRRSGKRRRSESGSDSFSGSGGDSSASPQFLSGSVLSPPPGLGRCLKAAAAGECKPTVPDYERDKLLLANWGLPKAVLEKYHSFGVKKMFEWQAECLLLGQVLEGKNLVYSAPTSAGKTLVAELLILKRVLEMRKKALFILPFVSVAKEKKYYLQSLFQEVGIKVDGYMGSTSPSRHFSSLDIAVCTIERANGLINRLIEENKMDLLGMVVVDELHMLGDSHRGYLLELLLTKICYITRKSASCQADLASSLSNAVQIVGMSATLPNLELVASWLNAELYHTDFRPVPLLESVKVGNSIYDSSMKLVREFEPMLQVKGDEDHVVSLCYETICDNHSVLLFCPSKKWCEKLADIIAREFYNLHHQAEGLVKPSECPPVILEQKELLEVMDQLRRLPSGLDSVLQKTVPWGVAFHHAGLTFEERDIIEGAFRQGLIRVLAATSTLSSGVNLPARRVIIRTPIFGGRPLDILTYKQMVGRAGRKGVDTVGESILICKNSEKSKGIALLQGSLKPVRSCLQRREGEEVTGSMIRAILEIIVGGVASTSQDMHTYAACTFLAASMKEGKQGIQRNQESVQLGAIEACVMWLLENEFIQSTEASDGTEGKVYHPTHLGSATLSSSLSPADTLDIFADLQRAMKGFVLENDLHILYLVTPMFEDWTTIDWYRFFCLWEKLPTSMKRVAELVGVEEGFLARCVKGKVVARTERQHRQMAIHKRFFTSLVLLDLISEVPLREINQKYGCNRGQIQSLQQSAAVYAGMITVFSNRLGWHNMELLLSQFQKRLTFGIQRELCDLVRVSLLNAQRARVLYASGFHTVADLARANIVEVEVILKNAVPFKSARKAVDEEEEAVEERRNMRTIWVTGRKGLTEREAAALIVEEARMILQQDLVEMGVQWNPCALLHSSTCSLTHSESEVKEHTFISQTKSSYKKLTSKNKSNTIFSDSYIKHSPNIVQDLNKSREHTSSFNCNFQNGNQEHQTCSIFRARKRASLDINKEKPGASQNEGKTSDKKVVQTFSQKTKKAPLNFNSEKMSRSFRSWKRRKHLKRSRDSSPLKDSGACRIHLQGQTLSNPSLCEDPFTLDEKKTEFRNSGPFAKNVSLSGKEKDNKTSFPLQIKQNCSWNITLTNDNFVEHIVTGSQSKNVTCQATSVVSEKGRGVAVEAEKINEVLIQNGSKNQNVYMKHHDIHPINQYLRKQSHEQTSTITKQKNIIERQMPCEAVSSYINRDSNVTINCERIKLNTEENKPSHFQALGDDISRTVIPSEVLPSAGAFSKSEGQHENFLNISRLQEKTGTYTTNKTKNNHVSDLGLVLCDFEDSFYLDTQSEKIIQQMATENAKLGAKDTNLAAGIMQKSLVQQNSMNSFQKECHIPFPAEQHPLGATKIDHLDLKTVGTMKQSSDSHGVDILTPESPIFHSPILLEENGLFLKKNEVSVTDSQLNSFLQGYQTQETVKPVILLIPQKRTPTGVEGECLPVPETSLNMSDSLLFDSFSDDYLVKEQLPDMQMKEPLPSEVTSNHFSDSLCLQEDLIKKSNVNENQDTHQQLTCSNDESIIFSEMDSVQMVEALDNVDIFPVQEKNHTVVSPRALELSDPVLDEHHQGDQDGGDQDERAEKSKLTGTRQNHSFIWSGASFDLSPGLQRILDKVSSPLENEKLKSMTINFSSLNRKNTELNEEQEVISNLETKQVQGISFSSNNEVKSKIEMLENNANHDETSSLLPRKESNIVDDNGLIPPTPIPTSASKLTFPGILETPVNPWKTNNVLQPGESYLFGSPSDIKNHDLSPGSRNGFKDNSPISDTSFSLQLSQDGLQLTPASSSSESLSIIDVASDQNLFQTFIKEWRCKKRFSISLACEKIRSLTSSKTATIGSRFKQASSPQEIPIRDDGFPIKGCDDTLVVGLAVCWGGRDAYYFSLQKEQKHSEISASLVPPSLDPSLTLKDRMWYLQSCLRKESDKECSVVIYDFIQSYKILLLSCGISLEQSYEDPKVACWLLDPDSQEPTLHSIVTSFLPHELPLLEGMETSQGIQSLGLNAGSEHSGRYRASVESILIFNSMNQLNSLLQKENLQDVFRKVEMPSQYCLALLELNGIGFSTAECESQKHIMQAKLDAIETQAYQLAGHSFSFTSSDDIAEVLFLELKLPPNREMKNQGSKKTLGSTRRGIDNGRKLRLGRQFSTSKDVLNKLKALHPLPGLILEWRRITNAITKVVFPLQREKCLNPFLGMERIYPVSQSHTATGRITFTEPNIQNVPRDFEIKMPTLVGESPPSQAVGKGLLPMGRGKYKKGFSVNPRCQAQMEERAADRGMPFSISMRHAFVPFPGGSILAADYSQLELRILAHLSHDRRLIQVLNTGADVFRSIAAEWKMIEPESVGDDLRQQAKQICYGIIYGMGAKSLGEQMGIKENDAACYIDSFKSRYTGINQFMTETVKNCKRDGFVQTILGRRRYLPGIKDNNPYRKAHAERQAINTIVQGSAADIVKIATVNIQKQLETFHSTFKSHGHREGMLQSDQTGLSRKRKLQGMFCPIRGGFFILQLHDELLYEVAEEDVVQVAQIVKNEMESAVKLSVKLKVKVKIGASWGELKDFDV

ART899
pIC50: ~6.74
